Counter-ions that a name gives are not always drawn.
tested on: clot lysis (fibrinolysis) in diluted human citrated plasma, tPA-induced; assay: Plasma-based clot lysis assay (5%); assay type: biochemical; details: human citrated platelet-poor plasma 5%, fibrinogen 3 μM, CaCl2 10 mM, tPA 0.2 nM, 37° C., OD at 405 nm
Outline: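 Compounds added to 5% platelet-poor citrated human plasma with 3 μM fibrinogen in 20 mM HEPES, 150 mM NaCl, 0.01% Brij, pH 7. Clotting and lysis started with 10 mM CaCl2 and 0.2 nM tPA at 37° C. IC50 derived by comparing time courses with a blank control reaction.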

`O=c1cc(C2CCNCC2)n2ncc(-c3nnc(-c4ccc(Cl)cc4)o3)c2[nH]1` [Example 181, 3-[5-(4-chlorophenyl)-1,3,4-oxadiazol-2-yl]-7-(piperidin-4-yl)pyrazolo[1,5-a]pyrimidin-5(4H)-one hydrochloride] and `O=c1cc(C2CCNCC2)n2ncc(-c3nnc(-c4ccncc4)o3)c2[nH]1` [Example 185, 7-(piperidin-4-yl)-3-[5-(pyridin-4-yl)-1,3,4-oxadiazol-2-yl]pyrazolo[1,5-a]pyrimidin-5 (4H)-one hydrochloride] are within 1.5-fold of each other in IC50: 28 nM for the first, 38 nM for the second.

`O=c1cc(C2CCNCC2)n2ncc(-c3nnc(CC4CCCCC4)o3)c2[nH]1` [Example 182, 3-[5-(cyclohexylmethyl)-1,3,4-oxadiazol-2-yl]-7-(piperidin-4-yl)pyrazolo[1,5-a]pyrimidin-5 (4H)-one hydrochloride] and `CN1CCC(Cc2noc(-c3cnn4c(C5CCNCC5)cc(=O)[nH]c34)n2)CC1` [Example 203, 3-{3-[(1-methylpiperidin-4-yl)methyl]-1,2,4-oxadiazol-5-yl}-7-(piperidin-4-yl)pyrazolo[1,5-a]pyrimidin-5(4H)-one hydrochloride] are within 1.5-fold of each other in IC50: 35 nM for the first, 34 nM for the second.

`O=c1cc(C2CCNCC2)n2ncc(-c3nnc(-c4ccccc4F)o3)c2[nH]1` [Example 186, 3-[5-(2-fluorophenyl)-1,3,4-oxadiazol-2-yl]-7-(piperidin-4-yl)pyrazolo[1,5-a]pyrimidin-5(4H)-one hydrochloride] and `O=c1cc(C2CCNCC2)n2ncc(-c3noc(-c4ccccc4F)n3)c2[nH]1` [Example 216, 3-[5-(2-fluorophenyl)-1,2,4-oxadiazol-3-yl]-7-(piperidin-4-yl)pyrazolo[1,5-a]pyrimidin-5 (4H)-one hydrochloride] are the same in IC50: 34 nM for the first, 34 nM for the second.

`Cc1nc(-c2ccccc2)sc1-c1cnn2c(C3CCNCC3)cc(=O)[nH]c12` [Example 187, 3-(4-methyl-2-phenyl-1,3-thiazol-5-yl)-7-(piperidin-4-yl)pyrazolo[1,5-a]pyrimidin-5(4H)-one hydrochloride] and `Cc1ccccc1Cc1noc(-c2cnn3c(C4CCNCC4)cc(=O)[nH]c23)n1` [Example 198, 3-[3-(2-methylbenzyl)-1,2,4-oxadiazol-5-yl]-7-(piperidin-4-yl)pyrazolo[1,5-a]pyrimidin-5(4H)-one hydrochloride] are within 1.5-fold of each other in IC50: 35 nM for the first, 34 nM for the second.

`O=c1cc(C2CCNCC2)n2ncc(-c3nc(-c4ccc(C(F)(F)F)nc4)no3)c2[nH]1` [Example 188, 7-(piperidin-4-yl)-3-{3-[6-(trifluoromethyl)pyridin-3-yl]-1,2,4-oxadiazol-5-yl}pyrazolo[1,5-a]pyrimidin-5(4H)-one hydrochloride] and `O=c1cc(C2CCNCC2)n2ncc(-c3nc(-c4cnccc4C(F)(F)F)no3)c2[nH]1` [Example 189, 7-(piperidin-4-yl)-3-{3-[4-(trifluoromethyl)pyridin-3-yl]-1,2,4-oxadiazol-5-yl}pyrazolo[1,5-a]pyrimidin-5(4H)-one hydrochloride] are within 1.5-fold of each other in IC50: 35 nM for the first, 38 nM for the second.

First: O=c1cc(C2CCNCC2)n2ncc(-c3nc(-c4cc(F)c(F)cc4F)no3)c2[nH]1 [Example 190, 7-(piperidin-4-yl)-3-[3-(2,4,5-trifluorophenyl)-1,2,4-oxadiazol-5-yl]pyrazolo[1,5-a]pyrimidin-5 (4H)-one hydrochloride]
Second: O=c1cc(C2CCNCC2)n2ncc(-c3noc(-c4cccc(Cl)c4F)n3)c2[nH]1 [Example 218, 3-[5-(3-chloro-2-fluorophenyl)-1,2,4-oxadiazol-3-yl]-7-(piperidin-4-yl)pyrazolo[1,5-a]pyrimidin-5(4H)-one hydrochloride]
The IC50 of the first is 1.6-fold lower: 34 nM for the first, 54 nM for the second. The first is the more potent here.

`CS(=O)(=O)Cc1noc(-c2cnn3c(C4CCNCC4)cc(=O)[nH]c23)n1` [Example 191, 3-{3-[(methylsulfonyl)methyl]-1,2,4-oxadiazol-5-yl}-7-(piperidin-4-yl)pyrazolo[1,5-a]pyrimidin-5(4H)-one hydrochloride] and `CC(C)S(=O)(=O)Cc1noc(-c2cnn3c(C4CCNCC4)cc(=O)[nH]c23)n1` [Example 201, 3-{3-[(isopropylsulfonyl)methyl]-1,2,4-oxadiazol-5-yl}-7-(piperidin-4-yl)pyrazolo[1,5-a]pyrimidin-5(4H)-one hydrochloride] are the same in IC50: 34 nM for the first, 34 nM for the second.

First: O=c1cc(C2CCNCC2)n2ncc(-c3nc(CCCC(F)(F)F)no3)c2[nH]1 [Example 192, 7-(piperidin-4-yl)-3-[3-(4,4,4-trifluorobutyl)-1,2,4-oxadiazol-5-yl]pyrazolo[1,5-a]pyrimidin-5(4H)-one hydrochloride]
Second: NCc1noc(-c2cnn3c(C4CCNCC4)cc(=O)[nH]c23)n1 [Example 212, 3-[3-(aminomethyl)-1,2,4-oxadiazol-5-yl]-7-(piperidin-4-yl)pyrazolo[1,5-a]pyrimidin-5 (4H)-one hydrochloride]
The IC50 of the first is 1.7-fold lower: 34 nM for the first, 58 nM for the second.

`O=c1cc(C2CCNCC2)n2ncc(-c3nc(Cc4ccc(F)cc4Cl)no3)c2[nH]1` [Example 195, 3-[3-(2-chloro-4-fluorobenzyl)-1,2,4-oxadiazol-5-yl]-7-(piperidin-4-yl)pyrazolo[1,5-a]pyrimidin-5(4H)-one hydrochloride] and `O=c1cc(C2CCNCC2)n2ncc(-c3nc(Cc4ccccc4Cl)no3)c2[nH]1` [Example 209, 3-[3-(2-chlorobenzyl)-1,2,4-oxadiazol-5-yl]-7-(piperidin-4-yl)pyrazolo[1,5-a]pyrimidin-5(4H)-one hydrochloride] are within 1.5-fold of each other in IC50: 35 nM for the first, 36 nM for the second.

`NC(=O)c1noc(-c2cnn3c(C4CCNCC4)cc(=O)[nH]c23)n1` [Example 200, 5-[5-oxo-7-(piperidin-4-yl)-4,5-dihydropyrazolo[1,5-a]pyrimidin-3-yl]-1,2,4-oxadiazole-3-carboxamide hydrochloride] and `O=C(O)c1noc(-c2cnn3c(C4CCNCC4)cc(=O)[nH]c23)n1` [Example 221, 5-[5-oxo-7-(piperidin-4-yl)-4,5-dihydropyrazolo[1,5-a]pyrimidin-3-yl]-1,2,4-oxadiazole-3-carboxylic acid hydrochloride] are within 1.5-fold of each other in IC50: 34 nM for the first, 48 nM for the second.

Compared with `COC(=O)c1ccc(-c2noc(-c3cnn4c(C5CCNCC5)cc(=O)[nH]c34)n2)cc1` [Example 204, Methyl 4-{5-[5-oxo-7-(piperidin-4-yl)-4,5-dihydropyrazolo[1,5-a]pyrimidin-3-yl]-1,2,4-oxadiazol-3-yl}benzoate hydrochloride], `Cc1ccc(-c2nc(-c3cnn4c(C5CCNCC5)cc(=O)[nH]c34)no2)cc1` [Example 220, 3-[5-(4-methylphenyl)-1,2,4-oxadiazol-3-yl]-7-(piperidin-4-yl)pyrazolo[1,5-a]pyrimidin-5 (4H)-one hydrochloride] is 2.3-fold lower in IC50: 35 nM for the first, 15 nM for the second. The second is the more potent here.

Going from `O=c1cc(C2CCNCC2)n2ncc(-c3nc(-c4cccc([N+](=O)[O-])c4)no3)c2[nH]1` [Example 205, 3-[3-(3-nitrophenyl)-1,2,4-oxadiazol-5-yl]-7-(piperidin-4-yl)pyrazolo[1,5-a]pyrimidin-5(4H)-one hydrochloride] to `Nc1cccc(-c2noc(-c3cnn4c(C5CCNCC5)cc(=O)[nH]c34)n2)c1` [Example 208, 3-[3-(3-aminophenyl)-1,2,4-oxadiazol-5-yl]-7-(piperidin-4-yl)pyrazolo[1,5-a]pyrimidin-5 (4H)-one hydrochloride], the IC50 rises from 35 nM to 55 nM (1.6-fold). The first is the more potent here.

`O=c1cc(C2CCNCC2)n2ncc(-c3nc(Cc4ccc(Cl)cc4)no3)c2[nH]1` [Example 210, 3-[3-(4-chlorobenzyl)-1,2,4-oxadiazol-5-yl]-7-(piperidin-4-yl)pyrazolo[1,5-a]pyrimidin-5(4H)-one hydrochloride] and `Cc1ccc(Cc2noc(-c3cnn4c(C5CCNCC5)cc(=O)[nH]c34)n2)cc1` [Example 214, 3-[3-(4-methylbenzyl)-1,2,4-oxadiazol-5-yl]-7-(piperidin-4-yl)pyrazolo[1,5-a]pyrimidin-5(4H)-one hydrochloride] are within 1.5-fold of each other in IC50: 34 nM for the first, 32 nM for the second.

`O=c1cc(C2CCNCC2)n2ncc(-c3nc(Cc4ccc(Cl)c(Cl)c4)no3)c2[nH]1` [Example 213, 3-[3-(3,4-dichlorobenzyl)-1,2,4-oxadiazol-5-yl]-7-(piperidin-4-yl)pyrazolo[1,5-a]pyrimidin-5 (4H)-one hydrochloride] and `O=c1cc(C2CCNCC2)n2ncc(-c3nc(Cc4cccc(C(F)(F)F)c4)no3)c2[nH]1` [Example 222, 7-(piperidin-4-yl)-3-{3-[3-(trifluoromethyl)benzyl]-1,2,4-oxadiazol-5-yl}pyrazolo[1,5-a]pyrimidin-5(4H)-one hydrochloride] are within 1.5-fold of each other in IC50: 30 nM for the first, 37 nM for the second.

`CC(c1ccccc1)c1noc(-c2cnn3c(C4CCNCC4)cc(=O)[nH]c23)n1` (stereo not drawn) [Example 215, 3-[3-(1-phenylethyl)-1,2,4-oxadiazol-5-yl]-7-(piperidin-4-yl)pyrazolo[1,5-a]pyrimidin-5(4H)-one hydrochloride] and `CC(C)(c1ccccc1)c1noc(-c2cnn3c(C4CCNCC4)cc(=O)[nH]c23)n1` [Example 223, 3-[3-(2-phenylpropan-2-yl)-1,2,4-oxadiazol-5-yl]-7-(piperidin-4-yl)pyrazolo[1,5-a]pyrimidin-5(4H)-one hydrochloride] are within 1.5-fold of each other in IC50: 34 nM for the first, 31 nM for the second.

`O=c1cc(C2CCNCC2)n2ncc(-c3noc(Cc4cccc(Cl)c4)n3)c2[nH]1` [Example 217, 3-[5-(3-chlorobenzyl)-1,2,4-oxadiazol-3-yl]-7-(piperidin-4-yl)pyrazolo[1,5-a]pyrimidin-5(4H)-one hydrochloride] and `COc1ccccc1-c1nc(-c2cnn3c(C4CCNCC4)cc(=O)[nH]c23)no1` [Example 219, 3-[5-(2-methoxyphenyl)-1,2,4-oxadiazol-3-yl]-7-(piperidin-4-yl)pyrazolo[1,5-a]pyrimidin-5(4H)-one hydrochloride] are within 1.5-fold of each other in IC50: 36 nM for the first, 35 nM for the second.

same assay, conditions: human citrated platelet-poor plasma 5%, fibrinogen 3 μM, CaCl2 10 mM, tPA 0.2 nM, 37° C., OD at 405 nm; hydrochloride

In the case of `CCc1noc(-c2cnn3c(C4CCNCC4)cc(=O)[nH]c23)n1` [Example 199, 3-(3-ethyl-1,2,4-oxadiazol-5-yl)-7-(piperidin-4-yl)pyrazolo[1,5-a]pyrimidin-5(4H)-one hydrochloride], the IC50 is reported as 34 nM.
